# Test results as given in patent US20240199634A1, “CYCLIC COMPOUNDS AND METHODS OF USING SAME” (SCHRÖDINGER, INC., priority 2021, published 2024).
# Assays:
# [1] = system: phosphorylation of MCM2 S53 in colo205 cells; assay: Phosphorylated MCM2 MSD Electrochemiluminescence Assay; type: cell-based; conditions: Homo sapiens, COLO 205, 20 h incubation, read-out: pMCM2-S53 MSD Colo205 IC50
# Method: Phosphorylated MCM2 MSD Electrochemiluminescence Assay
# The effect of CDC7 inhibitors on cellular phosphorylation of the CDC7 substrate MCM2 was determined using the following protocol:
# A total of 40,000 colo205 cells in 100 μL culture medium (1640 medium+10% Fetal bovine serum+1% Penicillin-Streptomycin) were plated in 96-well cell culture plates and allowed to attach for 6 hours. 3-fold serial dilutions of test compounds were prepared in completed PBS at 25× final concentration and 4 μL of each were added to the cells and incubated for 20 hours at 37° C., 5% CO2. Each concentration was tested in duplicate. After the 20 h incubation, cells were washed with 150 μL PBS and lysed with 40 μL MSD lysis buffer (obtained from Meso Scale Diagnostics) supplied with 1× complete ULTRA cocktail inhibitor (obtained from Roche). To detect phosphorylation of MCM2 S53, 30 μL of capture antibody solution (obtained from Abnova, catalog number H00004171-M01, 1:500) was added to each well of MULTI-ARRAY 96-well High Bind Plate, and incubated overnight. The antibody solution was removed, wells blocked with BSA solution and plates washed, followed by addition of 30 μl of cell lysate per well. After 2 h incubation, plates were washed. 30 μL of 1× detection antibody solution (obtained from Abcam, catalog number ab109133, 1:1000) was then added to each well and incubate for 1 hour. Plates were washed and 30 μL of 1× secondary antibody solution (obtained from MSD, catalog number R32AB-1, 1:5000) was added to each well and incubate for 1 hour. Plates were washed and 150 μL of 1× Read Buffer T was added to each well of the MSD plate. The electrochemiluminescence signal was measured on a MESO SECTOR 5600 plate reader. The percentage of remaining phosphorylated MCM2 signal was calculated following the equation below.
# [formula] • HC (high control): Cells treated with DMSO • Cpds: Cells treated with test compounds • LC (low control): Cells treated with positive control CDC7 inhibitor
# [2] = biological target: T1, Full length human CDC7 protein co-expressed with DBF4 (Homo sapiens, UniProt O00311); assay: CDC7 Kinase Biochemical Assay (ADP-Glo, PDKtide substrate); conditions: 0.1 nM CDC7/DBF4, 1 μM ATP, 10 μM PDKtide, 4 h reaction
# T1 construct: Full length human CDC7 protein co-expressed with DBF4; purchased SignalChem (China)
# Method: CDC7 Kinase Biochemical Assay PROTOCOL:
# Full length human CDC7 protein co-expressed with DBF4 was purchased from SignalChem (China). CDC7 kinase activity was determined with PDKtide (SignalChem) as a substrate and by measuring ADP production using the ADP-Glo™ Kinase Assay kit (Promega) following the manufacturer's instructions. The kinase reaction was performed using the following conditions: Buffer: 40 mM Tris pH 7.5, 20 mM MgCl2, 0.1 mg/mL BSA and 50 μM DTT. Final reaction mix contained 0.1 nM CDC7/DBF4, 1 μM ATP and 10 μM PDKtide. The kinase reaction time was 4 h. The ADP-Glo signal was measured using an EnVision plate reader (PerkinELmer).
# Percent inhibition of CDC7 kinase activity was calculated based on the following formula:
# [formula] • SSample: the signal of compounds • SHigh Ctrl: the signal of high control (DMSO) • SLow Ctrl: the signal of low control (positive control CDC7 inhibitor)
# T1 sequence (O00311 whole entry): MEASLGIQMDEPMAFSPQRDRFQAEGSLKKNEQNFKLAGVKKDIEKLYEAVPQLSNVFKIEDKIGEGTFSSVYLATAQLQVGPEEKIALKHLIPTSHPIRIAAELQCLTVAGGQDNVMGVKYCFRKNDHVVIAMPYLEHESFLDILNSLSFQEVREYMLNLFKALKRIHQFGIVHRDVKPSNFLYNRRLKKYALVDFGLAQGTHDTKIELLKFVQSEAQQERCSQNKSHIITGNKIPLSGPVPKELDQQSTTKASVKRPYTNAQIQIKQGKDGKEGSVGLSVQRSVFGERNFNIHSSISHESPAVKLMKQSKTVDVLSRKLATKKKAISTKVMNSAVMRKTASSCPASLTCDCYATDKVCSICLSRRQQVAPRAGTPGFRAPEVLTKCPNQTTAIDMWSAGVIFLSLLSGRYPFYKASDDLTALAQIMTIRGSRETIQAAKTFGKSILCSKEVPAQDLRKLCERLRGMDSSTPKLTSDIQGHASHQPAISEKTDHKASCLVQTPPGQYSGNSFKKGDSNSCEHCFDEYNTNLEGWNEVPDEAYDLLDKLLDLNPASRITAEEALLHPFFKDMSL
# T1 sequence (Q9UBU7 whole entry partner): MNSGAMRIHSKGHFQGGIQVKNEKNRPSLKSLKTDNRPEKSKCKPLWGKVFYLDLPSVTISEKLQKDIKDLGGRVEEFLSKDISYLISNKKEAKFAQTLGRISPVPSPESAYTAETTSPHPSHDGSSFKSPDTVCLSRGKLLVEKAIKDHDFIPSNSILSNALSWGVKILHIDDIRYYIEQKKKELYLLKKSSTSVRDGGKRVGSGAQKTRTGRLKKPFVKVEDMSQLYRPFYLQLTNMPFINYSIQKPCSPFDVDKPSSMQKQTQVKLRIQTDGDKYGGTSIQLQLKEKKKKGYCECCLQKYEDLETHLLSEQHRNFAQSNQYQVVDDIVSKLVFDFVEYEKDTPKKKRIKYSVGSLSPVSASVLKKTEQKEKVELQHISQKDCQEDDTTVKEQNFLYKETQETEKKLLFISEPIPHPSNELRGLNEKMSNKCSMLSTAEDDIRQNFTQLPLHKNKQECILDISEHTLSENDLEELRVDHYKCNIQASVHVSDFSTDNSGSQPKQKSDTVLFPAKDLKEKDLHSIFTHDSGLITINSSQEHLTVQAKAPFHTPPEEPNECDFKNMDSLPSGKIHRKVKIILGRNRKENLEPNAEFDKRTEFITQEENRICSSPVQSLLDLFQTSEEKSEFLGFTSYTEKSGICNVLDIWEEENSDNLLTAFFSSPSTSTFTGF
IC50 [1] [nM],IC50 [2] [nM],SMILES
≤ 5,≤ 1,"CC(C)C1(O)COCc2c1[nH]c(=O)c1sc(-c3cn[nH]c3)cc21 (single isomer, unassigned) [Compound 16]"
5 to 20,≤ 1,"CCC1(O)COCc2c1[nH]c(=O)c1sc(-c3cn[nH]c3)cc21 (single isomer, unassigned) [Compound 18]"
≤ 5,≤ 1,"CC(C)(C)[C@@]1(O)COCc2c1[nH]c(=O)c1sc(-c3cn[nH]c3)cc21 (single isomer, unassigned) [Compound 20]"
≤ 5,≤ 1,"CC(C)(C)[C@@]1(O)COCc2c1[nH]c(=O)c1sc(-c3ccncc3)cc21 (single isomer, unassigned) [Compound 22]"
≤ 5,≤ 1,"CC(C)C1(O)COCc2c1[nH]c(=O)c1sc(-c3c[nH]nc3F)cc21 (single isomer, unassigned) [Compound 27]"
> 50,≤ 1,"Cn1nccc1-c1cc2c3c([nH]c(=O)c2s1)C(O)(C(F)(F)F)COC3 (single isomer, unassigned) [Compound 30]"
5 to 20,≤ 1,"Cc1n[nH]cc1-c1cc2c3c([nH]c(=O)c2s1)C(O)(C(F)(F)F)COC3 (single isomer, unassigned) [Compound 32]"
5 to 20,≤ 1,"O=c1[nH]c2c(c3cc(-c4cn[nH]c4)sc13)CCCC2(O)C(F)F (single isomer, unassigned) [Compound 37]"
> 50,1 to 10,"CC1(O)CCCc2c1[nH]c(=O)c1sc(-c3cn[nH]c3)cc21 (single isomer, unassigned) [Compound 41]"
20 to 50,≤ 1,"O=c1[nH]c2c(c3cc(-c4cn[nH]c4)sc13)COCC2(O)C(F)F (single isomer, unassigned) [Compound 42]"
5 to 20,≤ 1,"CC(C)C1(O)COCc2c1[nH]c(=O)c1sc(-c3ccncc3)cc21 (single isomer, unassigned) [Compound 44]"
5 to 20,≤ 1,"CC(C)C1(O)COCc2c1[nH]c(=O)c1sc(-c3ccns3)cc21 (single isomer, unassigned) [Compound 46]"
≤ 5,≤ 1,"CCC1(O)CC(F)(F)Cc2c1[nH]c(=O)c1sc(-c3cn[nH]c3)cc21 (single isomer, unassigned) [Compound 51]"
≤ 5,≤ 1,"CC(C)(C)C1(O)COCc2c1[nH]c(=O)c1sc(-c3ccncc3F)cc21 (single isomer, unassigned) [Compound 59]"
–,≤ 1,"CC(C)(C)C1(O)COCc2c1[nH]c(=O)c1sc(-c3ccnnc3)cc21 (single isomer, unassigned) [Compound 67]"
–,> 10,"CC(C)(C)C1(O)COCc2c1[nH]c(=O)c1sc(-c3ccnnc3)cc21 (single isomer, unassigned) [Compound 68]"
5 to 20,≤ 1,"Cc1cnccc1-c1cc2c3c([nH]c(=O)c2s1)C(O)(C(C)(C)C)COC3 (single isomer, unassigned) [Compound 69]"
–,> 10,"Cc1cnccc1-c1cc2c3c([nH]c(=O)c2s1)C(O)(C(C)(C)C)COC3 (single isomer, unassigned) [Compound 70]"
–,1 to 10,"CC#CC1(O)COCc2c1[nH]c(=O)c1sc(-c3cn[nH]c3)cc21 (single isomer, unassigned) [Compound 72]"
–,> 10,"CC#CC1(O)COCc2c1[nH]c(=O)c1sc(-c3cn[nH]c3)cc21 (single isomer, unassigned) [Compound 73]"
–,> 10,"CCC(C)C1(O)COCc2c1[nH]c(=O)c1sc(-c3cn[nH]c3)cc21 (single isomer, unassigned) [Compound 74]"
–,> 10,"CCC(C)C1(O)COCc2c1[nH]c(=O)c1sc(-c3cn[nH]c3)cc21 (single isomer, unassigned) [Compound 75]"

IC50 [1] [nM],IC50 [2] [nM],SMILES
–,≤ 1,"CC[C@@H](C)[C@@]1(O)COCc2c1[nH]c(=O)c1sc(-c3cn[nH]c3)cc21 (single isomer, unassigned) [Compound 76]"
–,≤ 1,"CC[C@H](C)[C@]1(O)COCc2c1[nH]c(=O)c1sc(-c3cn[nH]c3)cc21 (single isomer, unassigned) [Compound 77]"
–,≤ 1,"O=c1[nH]c2c(c3cc(-c4cn[nH]c4)sc13)COCC2(O)C1CCCC1 (single isomer, unassigned) [Compound 78]"
–,1 to 10,"O=c1[nH]c2c(c3cc(-c4cn[nH]c4)sc13)COCC2(O)C1CCCC1 (single isomer, unassigned) [Compound 79]"
–,> 10,"CCC(C)(C)C1(O)COCc2c1[nH]c(=O)c1sc(-c3cn[nH]c3)cc21 (single isomer, unassigned) [Compound 80]"
–,≤ 1,"CCC(C)(C)C1(O)COCc2c1[nH]c(=O)c1sc(-c3cn[nH]c3)cc21 (single isomer, unassigned) [Compound 81]"
–,1 to 10,"CN(C)C1(C)COCc2c1[nH]c(=O)c1sc(-c3cn[nH]c3)cc21 (single isomer, unassigned) [Compound 82]"
–,1 to 10,"CN(C)C1(C)COCc2c1[nH]c(=O)c1sc(-c3cn[nH]c3)cc21 (single isomer, unassigned) [Compound 83]"
–,≤ 1,"CC(C)C1(O)CCCc2c1[nH]c(=O)c1sc(-c3cn[nH]c3)cc21 (single isomer, unassigned) [Compound 87]"
–,1 to 10,"CC(C)C1(O)CCCc2c1[nH]c(=O)c1sc(-c3cn[nH]c3)cc21 (single isomer, unassigned) [Compound 88]"
–,> 10,"Cn1nccc1-c1cc2c3c([nH]c(=O)c2s1)C(O)(C(C)(C)C)COC3 (single isomer, unassigned) [Compound 90]"
–,≤ 1,"Cc1n[nH]cc1-c1cc2c3c([nH]c(=O)c2s1)C(O)(C(C)(C)C)COC3 (single isomer, unassigned) [Compound 92]"
–,1 to 10,"CC(F)(F)C1(O)COCc2c1[nH]c(=O)c1sc(-c3cn[nH]c3)cc21 (single isomer, unassigned) [Compound 95]"
–,≤ 1,"CC(F)(F)C1(O)COCc2c1[nH]c(=O)c1sc(-c3cn[nH]c3)cc21 (single isomer, unassigned) [Compound 96]"
–,≤ 1,"O=c1[nH]c2c(c3cc(-c4cn[nH]c4)sc13)CCCC2 [Compound 1, 2-(1H-pyrazol-4-yl)-6,7,8,9-tetrahydrothieno[2,3-c]quinolin-4(5H)-one]"
–,≤ 1,"O=c1[nH]c2c(c3c(F)c(-c4cn[nH]c4)sc13)CC(F)(F)CC2 [Compound 2, 1,8,8-trifluoro-2-(1H-pyrazol-4-yl)-5,6,7,9-tetrahydrothieno[2,3-c]quinolin-4-one]"
–,≤ 1,"O=c1[nH]c2c(c3cc(-c4ccncc4)sc13)C1CCC2(O)CC1 [Compound 9, 6-hydroxy-2-(pyridin-4-yl)-6,7,8,9-tetrahydro-6,9-ethanothieno[2,3-c]quinolin-4(5H)-one]"
–,> 10,"CC1(N2CCCC2)COCc2c1[nH]c(=O)c1sc(-c3cn[nH]c3)cc21 (stereo not shown) [Compound 71, 4-methyl-8-(1H-pyrazol-4-yl)-4-(pyrrolidin-1-yl)-1,3,4,5-tetrahydro-6H-pyrano[4,3-b]thieno[3,2-d]pyridin-6-one]"
–,≤ 1,"CNC1(C)COCc2c1[nH]c(=O)c1sc(-c3cn[nH]c3)cc21 (stereo not shown) [Compound 84, 4-methyl-4-(methylamino)-8-(1H-pyrazol-4-yl)-1,3,4,5-tetrahydro-6H-pyrano[4,3-b]thieno[3,2-d]pyridin-6-one]"
–,≤ 1,"CC(F)(F)CC1(O)COCc2c1[nH]c(=O)c1sc(-c3cn[nH]c3)cc21 (stereo not shown) [Compound 86, 4-(2,2-difluoropropyl)-4-hydroxy-8-(1H-pyrazol-4-yl)-1,3,4,5-tetrahydro-6H-pyrano[4,3-b]thieno[3,2-d]pyridin-6-one]"
–,≤ 1,"CC(=O)N1Cc2c([nH]c(=O)c3sc(-c4cn[nH]c4)cc23)C(O)(C(C)(C)C)C1 (stereo not shown) [Compound 94, 2-acetyl-4-tert-butyl-4-hydroxy-8-(1H-pyrazol-4-yl)-3,5-dihydro-1H-thieno[2,3-c][1,6]naphthyridin-6-one]"
